The source of these data is PubChem BioAssay (NCI).

Holding throughout (assay): growth of human tumour cells (NCI), 48 h
Assay [1] deals with DLD-1 colon.
In assay [2] the test system is DMS 114 small cell lung.
In assay [3] the test system is DMS 273 small cell lung.
The test system of assay [4] is M19-MEL melanoma.
Assay [5] relates to SNB-78 CNS.
Assay [6] has as its system LXFL 529 NSCLC.
The subject of assay [7] is HOP-18 NSCLC.
Assay [8] deals with XF 498 CNS.
Assay [9] has as its system MDA-N.

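Dose response: 5 concentrations. Exposure: 48 h. Format: 96-well plates. Endpoint: linear interpolation; highest concentration if not reached. Here, GI50 denotes the concentration required for 50% inhibition of growth. Definition used: TGI = concentration required for complete inhibition of growth.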

On to `O=c1c2ccccc2c(=O)c2c1cc(Cl)c1[nH]c3c([nH]c12)c(Cl)cc1c(=O)c2ccccc2c(=O)c13`, for which the TGI in assay [1], in [2], in [3], in assay [4] and in assay [5] was greater than 100 µM in each case.

With `C/C(=N/NC(=O)C(N)=O)C(CC(C(=O)Nc1ccccc1C)/C(C)=N\NC(=O)C(N)=O)C(=O)Nc1ccccc1C` (stereo not drawn), the TGI in assay [1], in [6], in assay [4] and in [5] was greater than 100 µM each time.

For the compound `O=C(Nc1ccccc1Br)c1cccc([N+](=O)[O-])c1O`, the TGI in assay [1] is greater than 100 µM; in assay [2], 18 µM; in [3], greater than 48.8 µM; in assay [7], greater than 25.1 µM; in [6], 22.1 µM; in assay [4], 12.9 µM. In addition, the TGI in assay [5] was greater than 84.8 µM.

On to `O=C(O)C1c2ccccc2C(C(=O)O)c2ccccc21` (stereo not drawn), for which the TGI in [1], in [2], in [3], in [7], in assay [6] and in assay [4] was greater than 100 µM in each case. Besides, the TGI in [5] was greater than 100 µM.

For the compound `CCC[CH2][Sn]([CH2]CCC)([O]C(=O)c1nccnc1N)[O]C(=O)c1nccnc1N`, the GI50 in assay [1] is 0.876 µM; in assay [3], 0.869 µM; in assay [7], 2.32 µM; in assay [6] it was 0.124 µM; in assay [5] it was 0.388 µM; in assay [8] it was 1.38 µM. For the same compound, the TGI was 2.12 µM in [1]; 2.12 µM in [3]; 3.8 µM in assay [7]; 0.327 µM in assay [6]; 1.49 µM in assay [4]; 1.57 µM in [5]. Further, the TGI in [8] is 2.68 µM.

With `COc1cc2cc[n+]3c4cc(OC)c(OC)cc4c(C)cc3c2cc1OC`, the TGI in assay [1], in assay [2], in assay [3], in assay [7], in [6] and in assay [4] was greater than 100 µM in each case. The TGI in [5] and in assay [8] was greater than 100 µM each time.

Take `CN(c1ccccc1)C1C(=O)N(c2ccccc2)C1/C=C/c1ccccc1` (stereo not drawn): the TGI in [1], in assay [3], in assay [6], in [4] and in [5] was greater than 100 µM throughout.

With `O=C1/C(=C/c2ccccc2)CCC/C1=C\c1ccccc1`, the TGI in [1] worked out at 8.83 µM; in assay [2], 24.3 µM; in [3], 21.5 µM; in assay [7], 38.7 µM; in [6] it was 15.8 µM; in assay [4] it was 6.98 µM. Besides, the TGI in assay [9] was 7.71 µM; in [5] it was greater than 87.9 µM.

Regarding `Cc1cc(C(=O)N2CCN(Cc3ccccc3)CC2)c(C)o1`, the TGI in [1], in assay [2], in assay [7], in assay [6], in [4] and in [5] was greater than 100 µM throughout. The same compound returned a TGI in [8] greater than 100 µM.

Take `CC(=O)OC1CCC2(C)C(=CCC3C2CCC2(C)C(C(C)C(=O)O)CCC32)C1` (stereo not drawn): the TGI in assay [9] was greater than 100 µM.

In [9], `CCC1CC(=O)N(SCC(N)C(=O)O)C1=O` (stereo not drawn) displayed a TGI greater than 100 µM.

Turning to `C[C@H]1CC(=O)C2=CCCC3(SCCCS3)[C@@H]2[C@H]1CO`, the TGI in assay [1], in assay [2], in assay [3], in assay [7], in assay [6] and in [4] was greater than 100 µM each time. The compound also yielded a TGI in [8] greater than 100 µM.

Regarding `O=C(NNC(=O)c1ccncc1)c1ccncc1`, the TGI in [9] was greater than 100 µM.

With `CC1=C(c2cc(C(=O)Nc3ccc(Cl)c(Cl)c3)nc(N)n2)Sc2ccccc2N1`, the TGI in [1], in [2], in assay [3], in [7], in assay [6] and in assay [4] was greater than 100 µM each time. Further, the TGI in assay [5] and in assay [8] was greater than 100 µM in each case.

On to `O=C(O)C#CCO`, for which the TGI in [2], in assay [3], in assay [6], in assay [4], in assay [5] and in assay [8] was greater than 100 µM in each case.

With `COC(=O)C1CCC(Nc2cccc(C(F)(F)F)c2)=N1` (stereo not drawn), the TGI in assay [1], in assay [2], in assay [3], in assay [7], in assay [6] and in assay [5] was greater than 100 µM each time. Besides, in assay [8], the TGI is greater than 100 µM.

Take `O=c1[nH]c(SCc2c(Cl)c(Cl)c(Cl)c(Cl)c2Cl)nc(=S)[nH]1`: the TGI in assay [9] was greater than 100 µM.

`COc1cc2c3c(n(C)c(=O)c2cc1OC)-c1cc2c(cc1/C3=C\CCCBr)OCO2`: in assay [9], the GI50 was greater than 100 µM and the TGI was greater than 100 µM.
